Results from the Kinase Knowledgebase extract (Sharma et al. 2016).

Key:
[1] = molecular target: PIK3CB (Human) (UniProt P42338); assay: Inhibition of PIK3CB Kinase Activity
[2] = molecular target: PIK3CD (Human) (UniProt O00329); assay: Inhibition of PIK3CD Kinase Activity
[3] = molecular target: PIK3CA (human) (UniProt P42336); assay: Inhibition of PIK3CA Kinase Activity
PIK3CA (human), sequence (P42336 whole entry, looked up): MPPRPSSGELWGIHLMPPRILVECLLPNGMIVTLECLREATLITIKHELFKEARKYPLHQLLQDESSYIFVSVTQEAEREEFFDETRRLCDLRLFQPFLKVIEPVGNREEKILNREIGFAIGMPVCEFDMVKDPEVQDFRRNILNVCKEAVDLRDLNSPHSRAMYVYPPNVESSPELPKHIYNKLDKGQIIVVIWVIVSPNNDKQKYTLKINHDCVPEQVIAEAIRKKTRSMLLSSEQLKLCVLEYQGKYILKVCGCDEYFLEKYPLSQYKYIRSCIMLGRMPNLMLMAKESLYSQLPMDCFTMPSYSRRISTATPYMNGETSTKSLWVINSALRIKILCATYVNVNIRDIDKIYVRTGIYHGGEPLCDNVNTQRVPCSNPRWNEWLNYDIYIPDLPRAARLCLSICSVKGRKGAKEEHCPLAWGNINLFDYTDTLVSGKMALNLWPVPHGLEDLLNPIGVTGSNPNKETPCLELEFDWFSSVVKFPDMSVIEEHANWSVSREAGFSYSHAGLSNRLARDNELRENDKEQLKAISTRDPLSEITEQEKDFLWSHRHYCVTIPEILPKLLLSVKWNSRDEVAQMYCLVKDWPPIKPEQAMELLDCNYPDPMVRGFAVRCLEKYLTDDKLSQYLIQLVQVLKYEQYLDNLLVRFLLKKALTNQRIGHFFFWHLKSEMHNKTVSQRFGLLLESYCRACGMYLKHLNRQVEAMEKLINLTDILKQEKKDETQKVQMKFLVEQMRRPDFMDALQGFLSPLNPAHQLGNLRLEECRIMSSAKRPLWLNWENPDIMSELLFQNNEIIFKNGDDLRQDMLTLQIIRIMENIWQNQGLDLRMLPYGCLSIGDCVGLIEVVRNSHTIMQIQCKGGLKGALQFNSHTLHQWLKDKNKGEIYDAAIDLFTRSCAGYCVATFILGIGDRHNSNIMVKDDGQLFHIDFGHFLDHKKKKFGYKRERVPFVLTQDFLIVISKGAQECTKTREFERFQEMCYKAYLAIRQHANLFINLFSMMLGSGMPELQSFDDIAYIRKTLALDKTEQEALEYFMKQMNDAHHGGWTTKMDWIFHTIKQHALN

PIK3CB (Human), sequence (P42338 whole entry, looked up): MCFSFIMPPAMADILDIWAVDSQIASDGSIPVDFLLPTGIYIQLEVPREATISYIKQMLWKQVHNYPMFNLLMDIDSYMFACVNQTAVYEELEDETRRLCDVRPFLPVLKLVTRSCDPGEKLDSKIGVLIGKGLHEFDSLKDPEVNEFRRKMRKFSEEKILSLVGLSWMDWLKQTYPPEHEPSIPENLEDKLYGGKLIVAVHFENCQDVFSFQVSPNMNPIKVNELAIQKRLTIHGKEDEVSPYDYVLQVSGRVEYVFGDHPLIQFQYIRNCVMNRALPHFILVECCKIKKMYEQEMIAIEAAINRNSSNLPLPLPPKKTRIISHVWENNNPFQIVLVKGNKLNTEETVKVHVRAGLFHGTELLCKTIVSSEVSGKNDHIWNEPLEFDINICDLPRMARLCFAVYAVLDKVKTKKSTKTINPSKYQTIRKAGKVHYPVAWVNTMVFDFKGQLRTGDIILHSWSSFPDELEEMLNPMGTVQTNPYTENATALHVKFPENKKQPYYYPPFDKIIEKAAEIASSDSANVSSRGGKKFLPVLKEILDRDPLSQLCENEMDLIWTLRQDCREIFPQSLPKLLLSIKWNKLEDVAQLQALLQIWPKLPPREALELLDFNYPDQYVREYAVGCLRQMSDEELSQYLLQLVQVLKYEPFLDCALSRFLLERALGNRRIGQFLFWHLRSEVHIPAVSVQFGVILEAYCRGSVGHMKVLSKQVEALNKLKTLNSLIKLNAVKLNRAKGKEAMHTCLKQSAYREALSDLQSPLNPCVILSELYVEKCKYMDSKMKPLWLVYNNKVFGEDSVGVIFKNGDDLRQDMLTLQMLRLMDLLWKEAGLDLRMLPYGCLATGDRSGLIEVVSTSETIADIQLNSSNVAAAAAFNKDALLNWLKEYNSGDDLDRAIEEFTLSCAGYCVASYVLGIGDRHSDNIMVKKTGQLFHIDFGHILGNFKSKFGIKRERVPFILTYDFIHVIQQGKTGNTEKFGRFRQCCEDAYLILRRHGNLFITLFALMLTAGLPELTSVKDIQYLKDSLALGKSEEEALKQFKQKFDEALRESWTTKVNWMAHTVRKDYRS
PIK3CD (Human), sequence (O00329 whole entry, looked up): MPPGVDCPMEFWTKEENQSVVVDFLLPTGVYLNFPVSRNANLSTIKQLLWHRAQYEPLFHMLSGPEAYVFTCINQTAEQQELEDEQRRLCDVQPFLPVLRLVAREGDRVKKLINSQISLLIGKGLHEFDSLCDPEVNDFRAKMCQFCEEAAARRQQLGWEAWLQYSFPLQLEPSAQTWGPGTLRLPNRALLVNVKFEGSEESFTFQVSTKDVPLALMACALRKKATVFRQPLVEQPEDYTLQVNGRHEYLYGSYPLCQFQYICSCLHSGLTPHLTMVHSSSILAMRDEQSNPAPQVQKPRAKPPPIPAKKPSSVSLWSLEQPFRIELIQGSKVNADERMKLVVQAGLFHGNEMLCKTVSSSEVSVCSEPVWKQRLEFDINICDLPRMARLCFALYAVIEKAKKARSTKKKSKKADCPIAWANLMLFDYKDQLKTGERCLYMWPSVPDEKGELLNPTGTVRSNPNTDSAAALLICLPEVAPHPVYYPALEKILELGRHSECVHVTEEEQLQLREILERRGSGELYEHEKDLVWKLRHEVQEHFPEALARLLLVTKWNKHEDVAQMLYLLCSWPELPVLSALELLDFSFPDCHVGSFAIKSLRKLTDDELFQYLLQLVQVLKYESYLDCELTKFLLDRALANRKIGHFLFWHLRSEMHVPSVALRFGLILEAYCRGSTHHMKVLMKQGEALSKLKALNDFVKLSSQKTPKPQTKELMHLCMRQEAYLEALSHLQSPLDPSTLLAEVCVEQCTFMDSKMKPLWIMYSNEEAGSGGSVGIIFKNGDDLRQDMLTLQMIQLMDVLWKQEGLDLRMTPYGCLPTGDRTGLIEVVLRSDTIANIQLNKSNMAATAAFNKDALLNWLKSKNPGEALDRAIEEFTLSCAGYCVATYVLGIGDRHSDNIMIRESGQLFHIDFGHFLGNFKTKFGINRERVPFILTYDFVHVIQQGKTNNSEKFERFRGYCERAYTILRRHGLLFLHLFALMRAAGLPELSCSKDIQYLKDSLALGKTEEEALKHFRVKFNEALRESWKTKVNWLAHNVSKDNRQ

Row | Structure (SMILES) | IC50 [1] [nM] | IC50 [2] [nM] | IC50 [3] [nM]
1 | Cc1ccc([N+](=O)[O-])cc1S(=O)(=O)N(C)N=Cc1cnn2ccccc12 | > 10000 |  | 
2 | Cc1ccc([N+](=O)[O-])cc1S(=O)(=O)c1nnc(-c2cnn3ccc(Br)cc23)o1 |  | 120 | 84
3 | CCCCCC.Cc1ccc([N+](=O)[O-])cc1S(=O)(=O)N(C)N=Cc1cnn2ccc(I)cc12 | 720 | 240 | 23
4 | CN(N=Cc1cnn2ccc(C#N)cc12)S(=O)(=O)c1cc([N+](=O)[O-])ccc1CCc1ccccn1 | 5600 | 200 | 5.8
5 | CN(N=Cc1cnn2ccc(C#N)cc12)S(=O)(=O)c1cc([N+](=O)[O-])ccc1Cl | 94 |  | 
